How the values were obtained:
Assay type in all cases: cell-based, human
hPDCs [1] = assay: Notch/DLL1 signaling in nerve/neuron induction of hPDCs
Protocol: (§1) Quantitative RT-PCR: Total RNA was isolated from cells using TRizol (Invitrogen). cDNA was synthesized from 1 μg of total RNA using Superscript II reverse transcriptase, Oligo-d(T) 12-18 primer, DTT, and dNTPs according to the manufacturer's protocol. RT-PCR was performed by using a Pre-Mix kit (Bioneer). A PCR product was electrophoresed on a 2% agarose gel using RedGel (Biotium, Inc), and visualized by a UV-transilluminator.
To suppress FGF4 downstream signaling, hPDCs were cultured for 1 hour in a 10% FBS-supplemented alpha-MEM medium pretreated with or without 5 μM of ERK-inhibiting U0126 or 10 μM of JNK-inhibiting SP600125 (Calbiochem) in dimethyl sulfoxide (DMSO), and then stimulated with 25 ng/mL FGF4 for 3 days. To analyze suppression of Notch signaling, […] were in cultured for 1 hour in a 10% FBS-supplemented alpha-MEM medium pretreated with or without 50 μM of Notch-inhibiting DAPT (N—[N-(3,5-difluorophenacetyl)-1-alanyl]-S-phenylglycine t-butyl ester, Sigma), and then stimulated with 25 ng/mL FGF4 for 3 days.

hPDCs [2] = assay: Suppression of FGF4 downstream signaling (ERK, JNK) in hPDCs
Protocol: […] To analyze suppression of Notch signaling, ASCs were in cultured for 1 hour in a 10% FBS-supplemented alpha-MEM medium pretreated with or without 50 μM of Notch-inhibiting DAPT (N—[N-(3,5-difluorophenacetyl)-1-alanyl]-S-phenylglycine t-butyl ester, Sigma), and then stimulated with 25 ng/mL FGF4 for 3 days.
Cells were first fixed in 4% PFA at room temperature for 15 minutes, and then permeabilized with 0.1% Triton X-100 for 20 minutes, followed by blocking with 10% normal goat serum (NGS). The following primary antibodies were used: anti-neuron classIII β-tubulin (Tuji), -Nestin (Covance), -Ki-67 (Novocastra), -SOX2, -NANOG, KLF4, Brachyury/Bry (all from Abcam), OCT3/4, GATA4 (all from Santa Cruz). Cells were incubated with Alexa Fluor 488 or 594-conjugated antibody (Molecular Probes) at room temperature for 1 hour, and to examine nuclei, cells were stained with 4′, 6-diamino-2-phenylindole (DAPI, 2 mg/mL in PBS). A cover-slip was sealed to a glass slide. Cells were visualized by a fluorescence microscope or a confocal fluorescence microscope (LSM 510 confocal microscope, Zeiss).

TGF-β1 mRNA = assay: TGF-β1 gene silencing by siRNA in PDCs
Text: Using the human nucleotide sequences for TGF-β1 mRNA obtained from GenBank (GI:260655621) and referring to the design strategy of siRNA, two pairs of 21-bp reverse repeat sequences targeting TGF-β1 mRNA were synthesized by Bioneer (Seoul, Korea). siRNA targeted forward: 5′. CAGAGUACACACAGCAUAU-3′(1243-1261) (SEQ ID NO: 31); reverse, 5′-AUAUGCUGUGUGUACUCUG-3′(1261-1243) (SEQ ID NO: 32) of the TGF-β coding sequence. siRNA (at a final concentration of 100 pmol) was transfected with Upofectamine 2000 (Invitrogen, Gaithersburg, Md.) according to the manufacturer's instructions. The efficacy of TGF-β1 gene silencing was assessed by quantitative real-time PCR and Western blotting.

hPDCs [3] = assay: Neural induction of hPDCs by FGF4; details: 3 days
Protocol: as §1
Immunoblotting analysis: Cells were washed with cold PBS, and lysed with a lysis buffer containing a protease inhibitor cocktail (Pierce). A total cell lysate was normalized with a Bradford reagent (Bio-Rad), and 30˜50 μg of the cell lysate was applied to 8˜12% SDS-PAGE and transferred onto a PVDF membrane (Milipore). The membrane was blocked with TBS-T (50 mM Tris-HCl, pH 7.6, 150 mM NaCl, 0.05% Tween-20) containing 5% skim milk (Becton Dickinson), and examined with respective antibodies. An immune reaction was performed by using an ECL Western Blotting system (Millipore, Amersham). […]
Cells were first fixed in 4% PFA at room temperature for 15 minutes, and then permeabilized with 0.1% Triton X-100 for 20 minutes, followed by blocking with 10% normal goat serum (NGS). […] Cells were visualized by a fluorescence microscope or a confocal fluorescence microscope (LSM 510 confocal microscope, Zeiss).

With `C[C@H](NC(=O)Cc1cc(F)cc(F)c1)C(=O)N[C@H](C(=O)OC(C)(C)C)c1ccccc1` [DAPT, N—[N-(3,5-difluorophenacetyl)-1-alanyl]-S-phenylglycine t-butyl ester] the “DLL1, Nestin, and TUJ1 gene expression” value (hPDCs [1]; compared with DMSO-treated cells, HD culture with FGF4) was “significantly low levels”.

In the case of `Oc1c2ccccc2c2c3c(cccc13)N=N2` [SP600125], the “% Ki-67 cells in total DAPI+ cells” value (hPDCs [2]; SP600125) is reported as 37.53±1.89% and the “Nestin+ total cells” value (hPDCs [2]; SP600125, FGF4, 72 hours) is reported as 48.47±3.07.

With `N#CC(=C(/N)Sc1ccccc1N)/C(C#N)=C(\N)Sc1ccccc1N` [U0126] the “% Ki-67+ cells in total DAPI+ cells” value (hPDCs [2]; 5 mM U0216) was 64.46±2.14%, the “Nestin+ total cells” value (hPDCs [2]; 5 mM U0216, FGF4, 72 hours) was 47.61±3.46 and the Nestin protein levels (hPDCs [2]; FGF4-treated hPDCs, immunoblotting) was “decrease in Nestin protein levels”.

With “TGF-β siRNA: siRNA targeting TGF-β1 mRNA, SEQ ID NO: 31 and 32, synthesized by Bioneer (chain 1 CAGAGUACACACAGCAUAU; chain 2 AUAUGCUGUGUGUACUCUG; listed as RNA, chemistry not given here)” the “PEDF and Ang-1 expressions” value (TGF-β1 mRNA; after TGF-β siRNA transfection) was “no changes” and the “decrease of TGF-β expression” value (TGF-β1 mRNA; quantitative real-time PCR, compared with control PDCs) was 80-90%.

B1: DLL1-FLAG: recombinant DLL1 protein (protein, UniProt O00548 18-545, looked up)
extracellular domain: QVWSSGVFELKLQEFVNKKGLLGNRNCCRGGAGPPPCACRTFFRVCLKHYQASVSPEPPCTYGSAVTPVLGVDSFSLPDGGGADSAFSNPIRFPFGFTWPGTFSLIIEALHTDSPDDLATENPERLISRLATQRHLTVGEEWSQDLHSSGRTDLKYSYRFVCDEHYYGEGCSVFCRPRDDAFGHFTCGERGEKVCNPGWKGPYCTEPICLPGCDEQHGFCDKPGECKCRVGWQGRYCDECIRYPGCLHGTCQQPWQCNCQEGWGGLFCNQDLNYCTHHKPCKNGATCTNTGQGSYTCSCRPGYTGATCELGIDECDPSPCKNGGSCTDLENSYSCTCPPGFYGKICELSAMTCADGPCFNGGRCSDSPDGGYSCRCPVGYSGFNCEKKIDYCSSSPCSNGAKCVDLGDAYLCRCQAGFSGRHCDDNVDDCASSPCANGGTCRDGVNDFSCTCPPGYTGRNCSAPVSRCEHAPCHNGATCHERGHRYVCECARGYGGPNCQFLLPELPPGPAVVDLTEKLEGQGGPFPW
modifications: extracellular domain FLAG tag
notes: recombinant DLL1 protein
With B1 the “mRNA levels of DLL1, Nestin, and TUJ1” value (hPDCs [1]; three days with FGF4 in hPDC cultures) was “up-regulated”.

B2: FGF4: growth factor (R&D Systems) tested for neural induction of hPDCs (protein, UniProt P08620 31-206, looked up)
Fibroblast growth factor 4: APTAPNGTLEAELERRWESLVALSLARLPVAAQPKEAAVQSGAGDYLLGIKRLRRLYCNVGIGFHLQALPDGRIGGAHADTRDSLLELSPVERGVVSIFGVASRFFVAMSSKGKLYGSPFFTDECTFKEILLPNNYNAYESYKYPGMFIALSKNGKTKKGNRVSPTMKVTHFLPRL
For B2, the “expression levels of Nestin and Musashi1” value (hPDCs [3]; 25 ng/mL FGF4 vs 10 ng/mL EGF or 10 ng/mL bFGF) was “much higher” and the “mRNA expression level of Nestin” value (hPDCs [3]; 25 ng/mL among 10, 25, 50 ng/mL) was “highest mRNA expression level of Nestin”.

Source: patent publication US20180280447A1, “PLACENTA-DERIVED CELLS EXCRETING C3 OR C1R COMPLEMENT AND COMPOSITION CONTAINING SAME” (SUNGKWANG MEDICAL FOUNDATION, priority 2014, published 2018)
